Several values for one entry are separate records, joined by “and”; a condition that tells them apart may be missing. Identical values can stand only once.
How the values were obtained:
[1] = Iron-reducing power (IRP); format: biochemical; conditions: mean ± SE, n = 3
Experimental: (§1) The antioxidant activity was assessed using the iron reducing power (IRP) and the total antioxidant capacity (TAC). Ascorbic acid served as a standard to calculate the inhibition percentages (%) and the median inhibitory concentration (IC50) of each tested compound against the following radicals: nitric oxide (NO), hydroxyl (OH), hydrogen peroxide (H2O2), ABTS [79], and DPPH [80].

α-amylase = target: T1, α-amylase (Homo sapiens, UniProt P04746); assay: α-Amylase inhibition; format: biochemical; conditions: read-out: α-Amylase Inhibition (%)
T1 sequence (P04746 16-511): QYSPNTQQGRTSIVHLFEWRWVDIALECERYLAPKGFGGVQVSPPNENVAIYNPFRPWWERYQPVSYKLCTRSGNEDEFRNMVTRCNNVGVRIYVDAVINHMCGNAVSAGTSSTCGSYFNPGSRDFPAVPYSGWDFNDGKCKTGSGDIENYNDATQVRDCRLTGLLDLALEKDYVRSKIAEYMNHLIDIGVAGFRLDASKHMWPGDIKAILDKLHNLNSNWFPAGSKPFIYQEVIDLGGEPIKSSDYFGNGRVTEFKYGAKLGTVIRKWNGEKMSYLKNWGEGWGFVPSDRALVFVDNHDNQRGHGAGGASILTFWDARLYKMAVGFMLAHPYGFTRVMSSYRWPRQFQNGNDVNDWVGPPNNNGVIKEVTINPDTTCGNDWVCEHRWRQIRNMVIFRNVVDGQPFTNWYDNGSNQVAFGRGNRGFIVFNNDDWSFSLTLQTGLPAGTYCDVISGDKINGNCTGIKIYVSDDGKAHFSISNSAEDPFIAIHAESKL
Experimental: (§2) The IC50 and inhibition percentages (Inhib. %) of the enzymes α-amylase and α-glucosidase were calculated.

α-glucosidase = assay: α-Glucosidase inhibition; format: biochemical
Experimental: as §2

ABTS radical scavenging = format: biochemical; conditions: mean ± SE, n = 3; for ABTS (%): inhibition % at 20 µg/mL
Experimental: as §1

proteinase enzyme = assay: Proteinase inhibition (anti-arthritic); format: biochemical; design: Proteinase Inhibition (%): concentration or dose not given beside the values; conditions: mean ± SE, n = 3
Experimental: (§3) Anti-arthritic activity was evaluated using diclofenac sodium as the reference drug. The inhibition percentage and IC50 were determined for protein denaturation and the proteinase enzyme.

[2] = Hydroxyl (OH) radical scavenging; format: biochemical; conditions: mean ± SE, n = 3; for OH (%): inhibition % at 20 µg/mL
Experimental: as §1

[3] = Total antioxidant capacity (TAC); format: biochemical; conditions: mean ± SE, n = 3
Experimental: as §1

[4] = Hydrogen peroxide (H2O2) scavenging; format: biochemical; conditions: mean ± SE, n = 3; for H2O2 (%): inhibition % at 20 µg/mL
Experimental: as §1

protein denaturation = assay: Protein denaturation inhibition (anti-arthritic); format: biochemical; design: concentration or dose not given beside the values; conditions: mean ± SE, n = 3
Experimental: as §3

[5] = Nitric oxide (NO) radical scavenging; format: biochemical; conditions: mean ± SE, n = 3; for NO (%): inhibition % at 20 µg/mL
Experimental: as §1

[6] = target: acetylcholinesterase (AChE) (Homo sapiens, UniProt P22303); assay: biochemical; conditions: mean ± SE, n = 3; for IC50: read-out: AChE IC50 (µg/mL) (converted)
Chain of acetylcholinesterase (AChE) (P22303 32-614, species assumed): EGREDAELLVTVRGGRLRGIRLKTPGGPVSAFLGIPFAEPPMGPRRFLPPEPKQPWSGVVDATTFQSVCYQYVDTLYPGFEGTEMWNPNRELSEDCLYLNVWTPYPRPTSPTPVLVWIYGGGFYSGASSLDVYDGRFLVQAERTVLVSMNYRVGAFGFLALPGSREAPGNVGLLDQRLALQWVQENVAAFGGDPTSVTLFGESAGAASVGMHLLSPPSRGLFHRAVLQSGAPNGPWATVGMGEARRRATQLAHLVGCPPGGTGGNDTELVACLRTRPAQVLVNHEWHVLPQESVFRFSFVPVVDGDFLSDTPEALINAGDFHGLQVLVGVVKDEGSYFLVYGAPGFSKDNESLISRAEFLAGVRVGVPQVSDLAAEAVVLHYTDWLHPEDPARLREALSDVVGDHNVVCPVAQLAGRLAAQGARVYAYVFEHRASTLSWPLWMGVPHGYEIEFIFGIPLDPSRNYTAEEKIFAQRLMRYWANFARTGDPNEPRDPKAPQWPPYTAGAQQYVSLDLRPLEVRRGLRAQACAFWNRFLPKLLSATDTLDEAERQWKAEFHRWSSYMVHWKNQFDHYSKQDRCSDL
Experimental: The inhibition percentage and IC50 of the acetylcholinesterase (AChE) enzyme were measured using the Ellman method.

DPPH radical scavenging = format: biochemical; conditions: mean ± SE, n = 3; for DPPH (%): inhibition % at 20 µg/mL
Experimental: as §1

SMILES	IRP [1]	inhibition at 20 µg/mL (α-amylase) [%]	α-Glucosidase IC50 (α-glucosidase) [µg/mL]	ABTS (%) (ABTS radical scavenging)	ABTS radical scavenging IC50 (ABTS radical scavenging) [µg/mL]	Proteinase IC50 (proteinase enzyme) [µg/mL]	Proteinase Inhibition (%) (proteinase enzyme)	OH (%) [2] [%]	OH radical scavenging IC50 [2] [µg/mL]	TAC (mg Gallic Acid/g) [3]	H2O2 (%) [4] [%]	H2O2 scavenging IC50 [4] [µg/mL]	Protein Denaturation Inhibition (%) (protein denaturation)	NO (%) [5] [%]	NO radical scavenging IC50 [5] [µg/mL]	inhibition at 20 µg/mL [6] [%]	IC50 [6] [µM]	DPPH (%) (DPPH radical scavenging)	DPPH radical scavenging IC50 (DPPH radical scavenging) [µg/mL]	inhibition of α-glucosidase (α-glucosidase; at 20 µg/mL) [%]
O=c1/c(=C\[C@H](O)[C@@H](O)[C@H](O)[C@H](O)CO)sc2nc3sc4c(c3c(=O)n12)CCC4 [7a, (E)-2-((2S,3R,4R,5R)-2,3,4,5,6-pentahydroxyhexylidene)-7,8-dihydro-5H,6H-cyclopenta-[4,5]thieno [2,3-d]thiazolo [3,2-a]pyrimidine-3,5(2H)-dione]	10.29 µg/mL and 10.29 ± 0.22 µg/mL	13.4 ± 0.21	31.92 ± 0.89	17.19 ± 0.22	18.83 ± 0.22	62.33 ± 1.77	7.45 ± 0.18	7.21 ± 0.19	65.77 ± 2.12	17.44 mg Gallic Acid/g and 17.44 ± 0.22 mg Gallic Acid/g	8.07 ± 0.21	73.10 ± 1.67	11.62 ± 0.18	8.29 ± 0.22	48.89 ± 0.78	5.75 ± 0.18	117	14.04 ± 0.22		
O=c1/c(=C\[C@@H](O)[C@@H](O)[C@H](O)[C@H](O)CO)sc2nc3sc4c(c3c(=O)n12)CCC4 [7b, (E)-2-((2R,3R,4R,5R)-2,3,4,5,6-pentahydroxyhexylidene)-7,8-dihydro-5H,6H-cyclopenta [4,5]thieno [2,3-d]thiazolo [3,2-a]pyrimidine-3,5(2H)-dione]	14.44 ± 0.25 µg/mL	17.3 ± 0.24	19.96 ± 0.34	21.34 ± 0.25	15.17 ± 0.15	42.61 ± 0.37	10.89 ± 0.20	10.82 ± 0.21	43.75 ± 0.52	21.59 ± 0.25 mg Gallic Acid/g	12.12 ± 0.24	48.67 ± 0.85	15.06 ± 0.20	12.44 ± 0.25	32.58 ± 0.96	5.14 ± 0.16	131	18.19 ± 0.25	21.36 ± 0.44	
O=c1/c(=C\[C@H](O)[C@@H](O)[C@@H](O)[C@H](O)CO)sc2nc3sc4c(c3c(=O)n12)CCC4 [7c, (E)-2-((2S,3R,4S,5R)-2,3,4,5,6-pentahydroxyhexylidene)-7,8-dihydro-5H,6H-cyclopenta [4,5]thieno [2,3-d]thiazolo [3,2-a]-pyrimidine-3,5(2H)-dione]	13.25 ± 0.26 µg/mL	16.2 ± 0.24	22.37 ± 0.53	20.15 ± 0.26	16.06 ± 0.19	46.88 ± 1.21	9.91 ± 0.21	9.78 ± 0.22	48.42 ± 1.40	20.40 ± 0.26 mg Gallic Acid/g	10.96 ± 0.25	53.83 ± 1.05	14.08 ± 0.21	11.25 ± 0.26	36.00 ± 0.45	5.87 ± 0.19	115	17.00 ± 0.26	22.84 ± 0.23	
O=c1/c(=C\[C@H](O)[C@@H](O)[C@H](O)CO)sc2nc3sc4c(c3c(=O)n12)CCC4 [7d, (E)-2-((2S,3R,4R)-2,3,4,5-tetrahydroxypentylidene)-7,8-dihydro-5H,6H-cyclopenta [4,5]thieno [2,3-d]thiazolo [3,2-a]-pyrimidine-3,5(2H)-dione]	12.94 ± 0.23 µg/mL	15.9 ± 0.22	23.09 ± 0.41	19.84 ± 0.23	16.31 ± 0.16	48.10 ± 0.46	9.65 ± 0.19	9.51 ± 0.20	49.77 ± 0.65	20.09 ± 0.23 mg Gallic Acid/g	10.65 ± 0.22	55.36 ± 1.03	13.82 ± 0.19	10.94 ± 0.23	37.06 ± 1.13	4.4 ± 0.14	165	16.69 ± 0.23	23.28 ± 0.49	
O=c1/c(=C\[C@@H](O)[C@H](O)[C@H](O)CO)sc2nc3sc4c(c3c(=O)n12)CCC4 [7e, (E)-2-((2R,3S,4R)-2,3,4,5-tetrahydroxypentylidene)-7,8-dihydro-5H,6H-cyclopenta [4,5]thieno [2,3-d]thiazolo [3,2-a]-pyrimidine-3,5(2H)-dione]	11.62 ± 0.21 µg/mL	14.6 ± 0.2	26.75 ± 0.52	18.52 ± 0.21	17.47 ± 0.17	54.22 ± 0.58	8.56 ± 0.18	8.37 ± 0.19	56.57 ± 0.81	18.77 ± 0.21 mg Gallic Acid/g	9.37 ± 0.21	62.92 ± 1.25	12.73 ± 0.18	9.62 ± 0.21	42.12 ± 1.33	4.11 ± 0.13	176	15.37 ± 0.21	25.27 ± 0.54	
O=c1/c(=C\[C@H](O)[C@@H](O)[C@H](O)[C@H](O)CO)sc2nc3sc4c(c3c(=O)n12)CCCC4 [8a, (E)-2-((2S,3R,4R,5R)-2,3,4,5,6-pentahydroxyhexylidene)-6,7,8,9-tetrahydro-5H-benzo [4,5]thieno [2,3-d]thiazolo [3,2-a]-pyrimidine-3,5(2H)-dione]	6.80 ± 0.18 µg/mL	10.1 ± 0.17	64.26 ± 2.84	13.70 ± 0.18	23.63 ± 0.28	101.84 ± 3.59	4.57 ± 0.15	4.17 ± 0.15	113.71 ± 4.73	13.95 ± 0.18 mg Gallic Acid/g	4.67 ± 0.17	126.37 ± 4.09	8.74 ± 0.15	4.80 ± 0.18	84.51 ± 2.12	5.81 ± 0.18	112	10.55 ± 0.18	36.82 ± 0.42	
C[C@H]1O[C@H](O[C@H]2[C@H](O)[C@@H](O)[C@@H](O[C@H]3[C@H](O)[C@@H](O)C(O)O[C@@H]3CO)O[C@@H]2CO)[C@H](O)[C@@H](O)[C@@H]1N[C@H]1C=C(CO)[C@@H](O)[C@H](O)[C@H]1O (some centres unmarked) [Acarbose, reference compound]		69.85 ± 0.16																		63.10 ± 0.16
O=C(O)Cc1ccccc1Nc1c(Cl)cccc1Cl [Diclofenac sodium, reference compound]						8.20 ± 0.06	56.57 ± 0.14						60.74 ± 0.14							
O=C1O[C@H]([C@@H](O)CO)C(O)=C1O [ascorbic acid, reference compound]	67.49 µg/mL				4.35				8.31	78.44 mg Gallic Acid/g		9.24			6.18				5.45	
